Experiments:
[1] = molar heat capacity at constant pressure; conditions: 101.33 kPa, Small (less than 1 g) adiabatic calorimetry
[2] = Molar enthalpy of transition or fusion; conditions: Crystal
[3] = Crystal

OCC1c2ccccc2-c2ccccc21 [9-fluorenemethanol]
[1]
Conditions | molar heat capacity at constant pressure [J/K/mol]
78.5 K, Crystal | 74.59
79.9 K, Crystal | 75.63
82.26 K, Crystal | 77.22
84.64 K, Crystal | 78.94
85.94 K, Crystal | 79.76
87.24 K, Crystal | 80.69
88.54 K, Crystal | 81.69
89.84 K, Crystal | 82.71
91.05 K, Crystal | 83.42
92.27 K, Crystal | 84.33
93.81 K, Crystal | 85.44
95.68 K, Crystal | 86.83
97.47 K, Crystal | 88.34
99.25 K, Crystal | 89.58
101.04 K, Crystal | 90.8
102.74 K, Crystal | 92
104.45 K, Crystal | 93.28
106.15 K, Crystal | 94.37
107.78 K, Crystal | 95.55
110.05 K, Crystal | 97.38
112.81 K, Crystal | 99.34
115.57 K, Crystal | 101.09
118.25 K, Crystal | 103.07
120.84 K, Crystal | 105.05
123.44 K, Crystal | 107.15
126.04 K, Crystal | 109.39
128.55 K, Crystal | 111.1
131.07 K, Crystal | 112.95
133.5 K, Crystal | 114.39
135.94 K, Crystal | 116.5
138.38 K, Crystal | 118.22
140.73 K, Crystal | 120.24
143.08 K, Crystal | 121.92
145.44 K, Crystal | 123.49
147.79 K, Crystal | 125.56
150.06 K, Crystal | 127.26
152.34 K, Crystal | 129.25
154.61 K, Crystal | 130.86
156.8 K, Crystal | 132.44
158.99 K, Crystal | 134.22
161.18 K, Crystal | 136.08
163.38 K, Crystal | 137.61
165.57 K, Crystal | 139.23
167.68 K, Crystal | 141.01
169.87 K, Crystal | 142.68
171.98 K, Crystal | 144.26
174.09 K, Crystal | 145.97
176.12 K, Crystal | 147.81
178.23 K, Crystal | 149.54
180.26 K, Crystal | 151.27
182.29 K, Crystal | 153.26
184.32 K, Crystal | 155.07
186.35 K, Crystal | 156.65
188.38 K, Crystal | 158.43
190.32 K, Crystal | 160.03
192.27 K, Crystal | 161.75
194.22 K, Crystal | 163.44
196.17 K, Crystal | 165.02
198.12 K, Crystal | 167.02
200.06 K, Crystal | 168.41
201.93 K, Crystal | 170.12
203.88 K, Crystal | 172.09
205.75 K, Crystal | 173.99
207.69 K, Crystal | 175.77
209.56 K, Crystal | 177.8
211.43 K, Crystal | 179.56
213.21 K, Crystal | 181.31
215.08 K, Crystal | 183.23
216.95 K, Crystal | 185.04
218.73 K, Crystal | 186.49
220.52 K, Crystal | 188.39
222.38 K, Crystal | 190.43
224.17 K, Crystal | 192.38
225.96 K, Crystal | 194.23
227.66 K, Crystal | 195.8
229.45 K, Crystal | 197.65
231.15 K, Crystal | 199.09
232.86 K, Crystal | 201.07
234.64 K, Crystal | 202.79
236.35 K, Crystal | 203.84
238.05 K, Crystal | 205.56
239.75 K, Crystal | 207.12
241.46 K, Crystal | 208.72
243.08 K, Crystal | 210.03
244.71 K, Crystal | 211.22
246.41 K, Crystal | 212.28
248.12 K, Crystal | 213.72
249.74 K, Crystal | 215.05
251.36 K, Crystal | 216.5
253.07 K, Crystal | 218.21
254.69 K, Crystal | 219.66
256.31 K, Crystal | 220.83
257.94 K, Crystal | 221.75
259.56 K, Crystal | 223.22
261.18 K, Crystal | 224.27
262.73 K, Crystal | 225.73
264.35 K, Crystal | 226.9
265.97 K, Crystal | 228.35
267.6 K, Crystal | 229.68
269.14 K, Crystal | 231.11
270.68 K, Crystal | 232.43
272.14 K, Crystal | 233.76
273.68 K, Crystal | 235.07
276.77 K, Crystal | 237.44
280.83 K, Crystal | 240.46
284.15 K, Crystal | 243.34
287.89 K, Crystal | 246.4
291.22 K, Crystal | 248.63
294.46 K, Crystal | 252.05
297.55 K, Crystal | 255.07
300.71 K, Crystal | 258.24
303.8 K, Crystal | 261.53
306.96 K, Crystal | 265.22
310.05 K, Crystal | 268.37
313.05 K, Crystal | 272.08
316.13 K, Crystal | 275.5
319.22 K, Crystal | 279.32
322.22 K, Crystal | 283
325.23 K, Crystal | 287.49
328.23 K, Crystal | 292.62
331.15 K, Crystal | 297.89
334.07 K, Crystal | 303.26
337 K, Crystal | 308.39
339.84 K, Crystal | 314.22
342.68 K, Crystal | 320.06
345.44 K, Crystal | 326.47
348.03 K, Crystal | 332.27
350.71 K, Crystal | 338.6
353.31 K, Crystal | 344.72
355.99 K, Crystal | 351.11
358.59 K, Crystal | 357.3
360.94 K, Crystal | 363.05
378.41 K, Liquid | 50.2
379.63 K, Liquid | 50.76
381.41 K, Liquid | 51.75
383.59 K, Liquid | 52.7
385.71 K, Liquid | 53.72
387.58 K, Liquid | 54.67
389.69 K, Liquid | 55.38

Conditions | Molar enthalpy of transition or fusion [kcal/mol] | Triple point temperature [K]
[2] | 6.279 | –
[3] | – | 376.57

Reference: the NIST ThermoML archive (doi:10.1016/j.jct.2003.08.017)
